Strand notation (5' to 3'): a small letter for the sugar, then the base; units joined by * are phosphorothioate-linked, units joined directly phosphodiester-linked; [ ] holds rarer units or linkages, { } end groups; capitals alone tell only the bases. e = 2'-O-(2-methoxyethyl) (MOE); [5mC] = 5-methylcytosine; d = 2'-deoxy (DNA)
What was measured:
[1] = system: captopril-induced vascular permeability; test: Combination of PKK and Factor 12 antisense oligonucleotides on captopril-induced vascular permeability (Example 15); assay type: in vivo, mouse; conditions: positive control: PBS + captopril 20 μg ip + HOE-140 30 μg ip
Procedure: Mice were treated varying doses of ISIS 410944, a 5-10-5 MOE gapmer targeting Factor 12 ([…]; SEQ ID NO: 2247), and ISIS 482584 in a captopril-induced vascular permeability model.
Group 1 consisted of 4 mice and was treated with PBS administered subcutaneously twice a week for 3 weeks. No other treatment was administered to Group 1 which served as a control group to measure the basal levels of vascular permeability.
Group 2 consisted of 8 mice and was treated with PBS administered subcutaneously twice a week for 3 weeks. At the end of the treatment period, the mice were intraperitoneally administered 20 μg of captopril.
Group 3 consisted of 4 mice and was treated with PBS administered subcutaneously twice a week for 3 weeks. At the end of the treatment period, the mice were intraperitoneally administered 20 μg of captopril. The mice were also intraperitoneally administered 30 μg of HOE-140. Group 3 served as a positive control for inhibition of captopril-induced vascular permeability.
Groups 4, 5, 6, 7, and 8 consisted of 8 mice each and were treated with 2.5 mg/kg, 5 mg/kg, 10 mg/kg, 20 mg/kg, or 40 mg/kg (corresponding to 5 mg/kg, 10 mg/kg, 20 mg/kg, 40 mg/kg, or 80 mg/kg per week), respectively of ISIS 482584 and ISIS 410944 each administered subcutaneously twice a week for 3 weeks. At the end of the treatment period, the mice of all the groups were intraperitoneally administered 20 μg of captopril. Groups 4-8 served as the experimental treatment groups for examining the effect of ISIS 410944 and ISIS 482584 on captopril-induced vascular permeability.
All the groups were then injected with 30 mg/kg of Evans Blue solution in the tail vein. The mice were sacrificed 30 min after the Evans Blue solution administration and colons, feet, ears, and intestines were harvested.
The harvested tissues from the feet, colon, and ears were placed in formamide solution overnight to leach out the Evans Blue dye. The formamide solution containing feet and ear tissue was heated to 55° C. and left overnight. Higher OD values are associated with higher levels of permeability.

Factor 12 = Factor 12 activation in mouse plasma, Spectrozyme FXIIa amidolytic assay (Example 17); assay type: in vivo; conditions: for % F12 activation compared to the PBS control: 3 weeks, mouse plasma
Procedure: The effect of antisense inhibition of PKK mRNA on Factor 12 protein activation was evaluated.
Group 1 consisted of 8 mice and was treated with PBS administered subcutaneously twice a week for 3 weeks. No other treatment was administered to Group 1 which served as a control group to measure Factor 12 activation.
Groups 2, 3, 4, 5, and 6 consisted of 8 mice each and were treated with 2.5 mg/kg, 5 mg/kg, 10 mg/kg, 20 mg/kg, or 40 mg/kg (corresponding to 5 mg/kg, 10 mg/kg, 20 mg/kg, 40 mg/kg, or 80 mg/kg per week), respectively of ISIS 482584 administered subcutaneously twice a week for 3 weeks. Groups 2-6 served as the treatment groups for measuring the effect of ISIS 482584 on Factor 12 activation.
At the end of the treatment period, plasma was harvested from the mice for the Spectrozyme® Factor 12a based amidolytic assay for Factor 12 in plasma.
Plasma (5 μL) was added to 85 μL of PBS with 1 μg/ml dextran sulfate (500 kDa) in a 96 well polypropelene microplate and the solution was incubated for 5 minutes at room temperature. Spectrozyme® FXIIa (10 μL of a 2 mM solution) and 0.2 mM KALLISTOP™ solution was added and the absorbance kinetic was measured at 405 nm. Factor 12 activation was measured in the linear phase of absorbance accumulation. The results are presented in Table 78 as a percentage of Factor 12 activation measured in the PBS control sample.

[2] = Urine protein/creatinine ratio in cynomolgus monkeys (Example 8); conditions: cynomolgus monkey, 40 mg/kg sc
Procedure: Prior to the study, the monkeys were kept in quarantine for a 30-day period, during which the animals were observed daily for general health. The monkeys were 2-4 years old and weighed between 2 and 4 kg. Ten groups of four randomly assigned male cynomolgus monkeys each were injected subcutaneously with ISIS oligonucleotide or PBS. PBS solution or ISIS oligonucleotides at a dose of 40 mg/kg were administered initially with a loading regimen consisting of four doses on the first week of the study (days 1, 3, 5, and 7), followed by a maintenance regimen consisting of once weekly administration starting on Day 14 (weeks 2 to 13). Subcutaneous injections were performed in clock-wise rotations at 4 sites on the back; one site per dose. The injection sites were delineated by tattoo, while sedated using ketamine, and were separated by a minimum of 3 cm.
Kidney function was also assessed by urinalysis. Fresh urine from all animals was collected using a clean cage pan on wet ice. Food was removed overnight the day before fresh urine collection was done but water was supplied. The total protein and creatinine levels were measured using a Toshiba 120FR NEO automated chemistry analyzer (Toshiba Co., Japan) and the protein to creatinine ratio was calculated.

PKK mRNA = PKK mRNA in cynomolgus monkey liver (Example 8); assay type: in vivo; conditions: primates, Example 8
In short: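 Cynomolgus monkeys were dosed with human antisense oligonucleotides cross-reactive with the rhesus sequence. Liver RNA taken on day 87 or 88, 48 h after the last dose, was assayed by real-time PCR (primer probe set RTS3455) and normalized to cyclophilin. Values are percent PKK mRNA inhibition versus PBS control.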

## NC(N)=NCCC[C@@H](N)C(=O)N[C@@H](CCCN=C(N)N)C(=O)N1CCC[C@H]1C(=O)N1C[C@H](O)C[C@H]1C(=O)NCC(=O)N[C@@H](Cc1cccs1)C(=O)N[C@@H](CO)C(=O)N1Cc2ccccc2C[C@@H]1C(=O)N1[C@H](C(=O)N[C@@H](CCCN=C(N)N)C(=O)O)C[C@@H]2CCCC[C@@H]21 [HOE-140, Icatibant, reference compound]
[1]
  OD600 nm of Evans Blue dye, Colon: 0.23
  OD600 nm of Evans Blue dye, Ears: 0.04
  OD600 nm of Evans Blue dye, Feet: 0.06
  OD600 nm of Evans Blue dye, Intestines: 0.15

## ISIS 482584: 5-10-5 MOE gapmer targeting murine PKK, GGCATATTGGTTTTTGGAAT; SEQ ID NO: 2244 (antisense eG*eG*e[5mC]*eA*eT*dA*dT*dT*dG*dG*dT*dT*dT*dT*dT*eG*eG*eA*eA*eT)
Factor 12; 5 mg/kg/wk sc
  % F12 activation compared to the PBS control: 82%
Factor 12; 10 mg/kg/wk sc
  % F12 activation compared to the PBS control: 63%
Factor 12; 20 mg/kg/wk sc
  % F12 activation compared to the PBS control: 47%
Factor 12; 40 mg/kg/wk sc
  % F12 activation compared to the PBS control: 24%
Factor 12; 80 mg/kg/wk sc
  % F12 activation compared to the PBS control: 14%
Factor 12; mouse plasma after 3 weeks s.c. treatment
  activation of Factor 12: decreased activation of Factor 12

## Tes Ges mCes Aes Aes Gds Tds mCds Tds mCds Tds Tds Gds Gds mCds Aes Aes Aes mCes Ae [ISIS 546254]
[2]
  Urine protein/creatinine ratio: 0.04
PKK mRNA
  inhibiting PKK mRNA and protein expression in primates: effective for inhibiting PKK mRNA and protein expression

From US11840686B2, “Modulation of prekallikrein (PKK) expression” (Ionis Pharmaceuticals, Inc., priority 2013, dated 2023)
